From US12318385B2, “Pharmaceutical composition comprising PARP inhibitors” (Jiangsu Hengrui Medicine CO., LTD., priority 2018, dated 2025)
Read-outs that look alike come from different tables or passages of the source.

Assay: Solubility of compound represented by formula I in different solvents
Assay type: physicochemical
Settings: for solubility at 30 min: thermodynamic from solid, read-out: Approximate Solubility
Protocol: Referring to tests under the General Notices, Volume II, Chinese Pharmacopoeia 2010, excessive compounds represented by formula I which were grinded to fine powder were weighed and transferred in a certain amount of solvent (25° C.±2° C.), and shaken vigorously for 30 s every 5 min. The dissolution of the drug was observed within 30 min. Then the solution was filtered, the initial filtrate was discarded, and the concentration of the successive filtrate was tested. The solubility was calculated.

O=C(c1cc(Cc2n[nH]c(=O)c3ccccc23)ccc1F)N1CCn2nc(C(F)(F)F)nc2C1 [Compound represented by formula I]
Solubility (descriptive term) (Acetone): slightly soluble | Solubility (descriptive term) (Anhydrous Ethanol): very slightly soluble | Solubility (descriptive term) (Tetrahydrofuran): slightly soluble | solubility at 30 min (aqueous buffer, Acetate Buffer pH 4.5, 25° C.±2° C.): 0.85 µg/mL | solubility at 30 min (aqueous buffer, Phosphate Buffer pH 6.8, 25° C.±2° C.): 0.59 µg/mL | solubility at 30 min (aqueous with cosolvent or surfactant or cyclodextrin, 5% Polysorbate 80 Aqueous Solution, 25° C.±2° C.): 19.5 µg/mL | Solubility (descriptive term) (conventional aqueous solvents): practically insoluble | solubility at 30 min (organic solvent or mixture, Acetone, 25° C.±2° C.): 4960 µg/mL | solubility at 30 min (organic solvent or mixture, Anhydrous Ethanol, 25° C.±2° C.): 458 µg/mL | solubility at 30 min (organic solvent or mixture, Tetrahydrofuran, 25° C.±2° C.): 8550 µg/mL | solubility at 30 min (simulated gastric fluid, 0.1 mol/L Hydrochloric Acid, 25° C.±2° C.): 0.78 µg/mL
